The source of these data is paper PMC7614683, “A small molecule PI3Kα activator for cardioprotection and neuroregeneration” (Nature, 2023).

Experiment in all cases: SelectScreen Z-LYTE kinase activity assay (SI Table 6)
Format in all cases: biochemical

The target of experiment [1] is T1, protein kinases of the Z-LYTE panel (Homo sapiens, UniProt O15530).
T1 sequence (O15530 1-556): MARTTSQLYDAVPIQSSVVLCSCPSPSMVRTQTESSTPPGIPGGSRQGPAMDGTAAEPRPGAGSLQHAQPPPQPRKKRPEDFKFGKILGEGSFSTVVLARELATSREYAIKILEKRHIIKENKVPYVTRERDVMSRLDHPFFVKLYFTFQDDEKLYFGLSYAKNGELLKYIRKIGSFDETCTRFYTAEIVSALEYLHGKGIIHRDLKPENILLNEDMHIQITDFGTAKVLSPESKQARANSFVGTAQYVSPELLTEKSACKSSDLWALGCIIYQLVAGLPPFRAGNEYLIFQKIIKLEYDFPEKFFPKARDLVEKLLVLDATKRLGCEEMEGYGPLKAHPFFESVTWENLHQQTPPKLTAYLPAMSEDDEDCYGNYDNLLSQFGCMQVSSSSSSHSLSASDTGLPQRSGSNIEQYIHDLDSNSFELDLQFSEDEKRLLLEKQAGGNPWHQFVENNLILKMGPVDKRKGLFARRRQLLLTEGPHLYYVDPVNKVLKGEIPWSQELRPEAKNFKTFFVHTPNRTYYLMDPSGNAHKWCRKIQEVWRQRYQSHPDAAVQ
Particulars: PDK1, 1000 nM, [ATP] 100 μM. The essentials:
(§1)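 A counterscreen of 133 protein and 7 lipid kinases was run with one compound concentration, 1 μM 1938, in SelectScreen Adapta, Lantha or Z-LYTE assays.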

Experiment [2] has as its target T2, protein kinases of the Z-LYTE panel (Homo sapiens, UniProt P36888).
T2 sequence (P36888 27-993): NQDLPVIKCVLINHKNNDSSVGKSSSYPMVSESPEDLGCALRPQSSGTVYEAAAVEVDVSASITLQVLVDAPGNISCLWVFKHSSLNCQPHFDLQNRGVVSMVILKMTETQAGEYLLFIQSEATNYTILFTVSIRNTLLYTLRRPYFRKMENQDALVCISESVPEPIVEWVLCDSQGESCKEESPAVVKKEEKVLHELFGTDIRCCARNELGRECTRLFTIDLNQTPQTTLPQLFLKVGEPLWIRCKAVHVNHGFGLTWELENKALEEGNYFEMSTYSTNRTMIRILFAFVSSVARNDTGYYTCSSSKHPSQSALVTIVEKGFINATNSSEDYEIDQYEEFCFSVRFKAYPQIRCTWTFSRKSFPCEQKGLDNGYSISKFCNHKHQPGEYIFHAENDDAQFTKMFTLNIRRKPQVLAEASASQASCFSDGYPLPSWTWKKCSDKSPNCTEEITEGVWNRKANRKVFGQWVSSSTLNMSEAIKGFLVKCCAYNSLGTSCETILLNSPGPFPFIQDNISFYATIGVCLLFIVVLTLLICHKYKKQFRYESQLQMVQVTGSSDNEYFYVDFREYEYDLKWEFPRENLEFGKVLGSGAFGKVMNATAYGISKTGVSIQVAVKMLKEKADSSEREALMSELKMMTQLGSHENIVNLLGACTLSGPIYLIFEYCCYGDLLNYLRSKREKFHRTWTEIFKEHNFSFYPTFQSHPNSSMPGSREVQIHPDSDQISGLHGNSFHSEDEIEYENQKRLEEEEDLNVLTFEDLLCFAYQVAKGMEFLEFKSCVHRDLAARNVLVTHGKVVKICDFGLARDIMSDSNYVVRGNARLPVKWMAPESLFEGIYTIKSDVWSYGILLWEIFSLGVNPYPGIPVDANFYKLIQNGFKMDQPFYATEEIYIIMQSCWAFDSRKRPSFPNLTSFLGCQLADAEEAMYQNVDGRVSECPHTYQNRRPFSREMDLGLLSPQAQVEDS
The procedure, abridged: as §1

The target of experiment [3] is protein kinases of the Z-LYTE panel (Homo sapiens, UniProt P49760). The essentials:
as §1

Experiment [4] addresses protein kinases of the Z-LYTE panel (Homo sapiens, UniProt Q16620). The procedure, abridged: as §1
In experiment [5] the target is protein kinases of the Z-LYTE panel (Homo sapiens, UniProt Q96SB4). The procedure, abridged: as §1

Each structure is given as a SMILES string. Read-outs that look alike come from different tables or passages of the source.

As a reminder, the inhibition is the share of the control response that was lost under treatment.

protein kinases of the Z-LYTE panel (Homo sapiens, UniProt Q96SB4), sequence (Q96SB4 whole entry): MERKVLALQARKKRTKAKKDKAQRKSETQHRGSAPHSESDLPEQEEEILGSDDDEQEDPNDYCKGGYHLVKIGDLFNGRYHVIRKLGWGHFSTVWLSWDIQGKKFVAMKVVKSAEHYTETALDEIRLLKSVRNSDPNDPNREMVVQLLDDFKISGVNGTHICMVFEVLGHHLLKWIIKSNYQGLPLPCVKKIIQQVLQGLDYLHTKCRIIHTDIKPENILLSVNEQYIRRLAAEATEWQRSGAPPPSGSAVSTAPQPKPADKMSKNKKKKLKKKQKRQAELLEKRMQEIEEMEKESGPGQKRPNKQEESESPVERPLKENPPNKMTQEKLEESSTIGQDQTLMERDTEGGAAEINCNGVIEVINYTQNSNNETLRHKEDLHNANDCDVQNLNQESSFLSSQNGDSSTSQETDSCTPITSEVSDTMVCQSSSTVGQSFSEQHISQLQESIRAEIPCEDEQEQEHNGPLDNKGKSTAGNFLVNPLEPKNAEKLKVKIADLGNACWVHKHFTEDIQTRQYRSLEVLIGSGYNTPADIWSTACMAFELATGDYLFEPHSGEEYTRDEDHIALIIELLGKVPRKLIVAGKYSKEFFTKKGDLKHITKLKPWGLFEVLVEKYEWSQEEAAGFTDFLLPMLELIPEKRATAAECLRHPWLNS
protein kinases of the Z-LYTE panel (Homo sapiens, UniProt P49760), sequence (P49760 whole entry): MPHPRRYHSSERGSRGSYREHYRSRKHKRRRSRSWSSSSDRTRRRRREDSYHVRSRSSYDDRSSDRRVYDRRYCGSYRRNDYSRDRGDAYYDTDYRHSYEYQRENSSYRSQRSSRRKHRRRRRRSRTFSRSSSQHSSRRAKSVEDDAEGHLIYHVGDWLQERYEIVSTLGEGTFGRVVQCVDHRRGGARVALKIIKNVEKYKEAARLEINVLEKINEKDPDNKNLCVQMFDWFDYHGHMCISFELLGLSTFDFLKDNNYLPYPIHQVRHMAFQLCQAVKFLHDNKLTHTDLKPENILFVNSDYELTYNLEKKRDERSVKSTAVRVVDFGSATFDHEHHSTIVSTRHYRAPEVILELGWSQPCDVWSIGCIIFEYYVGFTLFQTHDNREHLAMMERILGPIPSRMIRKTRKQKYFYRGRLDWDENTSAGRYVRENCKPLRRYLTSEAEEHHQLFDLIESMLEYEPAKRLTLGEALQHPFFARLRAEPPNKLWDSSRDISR
protein kinases of the Z-LYTE panel (Homo sapiens, UniProt Q16620), sequence (Q16620 32-822): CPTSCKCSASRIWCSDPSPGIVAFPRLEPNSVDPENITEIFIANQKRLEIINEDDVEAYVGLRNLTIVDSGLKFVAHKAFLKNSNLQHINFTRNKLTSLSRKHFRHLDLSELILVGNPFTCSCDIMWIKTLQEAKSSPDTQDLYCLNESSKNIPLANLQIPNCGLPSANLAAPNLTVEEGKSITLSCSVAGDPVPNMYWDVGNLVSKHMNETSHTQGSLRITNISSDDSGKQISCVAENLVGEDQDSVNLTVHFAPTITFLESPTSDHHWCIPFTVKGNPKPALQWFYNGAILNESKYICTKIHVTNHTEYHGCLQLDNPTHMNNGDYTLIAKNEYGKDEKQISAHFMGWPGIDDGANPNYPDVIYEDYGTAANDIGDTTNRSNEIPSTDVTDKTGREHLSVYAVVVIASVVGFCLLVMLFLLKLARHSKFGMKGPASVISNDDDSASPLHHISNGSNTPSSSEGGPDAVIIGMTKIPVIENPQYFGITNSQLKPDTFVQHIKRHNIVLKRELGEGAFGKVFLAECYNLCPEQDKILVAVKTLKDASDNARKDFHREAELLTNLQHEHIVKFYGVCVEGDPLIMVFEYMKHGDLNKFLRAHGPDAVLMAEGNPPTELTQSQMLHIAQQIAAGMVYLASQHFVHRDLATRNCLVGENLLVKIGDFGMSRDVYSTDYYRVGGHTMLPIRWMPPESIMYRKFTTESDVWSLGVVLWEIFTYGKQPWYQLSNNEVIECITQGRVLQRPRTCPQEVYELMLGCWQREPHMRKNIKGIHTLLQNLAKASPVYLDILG

In the case of `CCN1CCN(c2ccc(Nc3cc(Nc4cccc5c4N(C(C)=O)CC5)ccn3)cc2)CC1` [Compound 1938], the inhibition at 1 µM was 6% in experiment [1] (read-out: % Inhibition Point 1); 7% in experiment [1] (read-out: % Inhibition Point 2); 6% in experiment [1] (read-out: % Inhibition mean); 19% in experiment [2] (read-out: % Inhibition Point 1); 20% in experiment [2] (read-out: % Inhibition Point 2); 19% in experiment [2] (read-out: % Inhibition mean). For the same molecule, the inhibition at 1 µM in experiment [3] (read-out: % Inhibition Point 1) was 2.33%; in experiment [3] (read-out: % Inhibition Point 2), 1.66%; in experiment [3] (read-out: % Inhibition mean), 2%; in experiment [4] (read-out: % Inhibition Point 1), 7.5%; in experiment [4] (read-out: % Inhibition Point 2), 6%; in experiment [4] (read-out: % Inhibition mean), 6.66%. In addition, the figures for the inhibition at 1 µM in experiment [5] (read-out: % Inhibition Point 1), in experiment [5] (read-out: % Inhibition Point 2) and in experiment [5] (read-out: % Inhibition mean) were 1.56%, 1.35% and 1.46%, respectively.
